The values that follow come from patent US12186337B2 (priority 2009, dated 2025).

For this data set the following is noted: pH 10.

The structures appear in SMILES notation.

As to `O=NO` [sodium nitrite], the “pH of 10% solution at 25° C.” value is 7.9.
